Measurements published in patent US8431556B2, “C-21-keto lupane derivatives preparation and use thereof” (Vertex Pharmaceuticals Incorporated, priority 2008, dated 2013).
Read-outs that look alike come from different tables or passages of the source.

System: HIV-1 (HIVIIIB)
Assay: HIV-1 replication in MT2 cell line with and without 30% human serum (viral RT activity in supernatant)
Type: cell-based
Details: Human immunodeficiency virus 1, MT2, MT-2 cells, average IC50 if tested more than once
In short: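 MT2 cells infected with HIVIIIB at MOI 0.5 for 3 h, washed, then cultured with serially diluted compound in RPMI/10% FBS, with or without 30% human serum, at 37° C. Compound-containing medium refreshed at day 3. Replication measured as supernatant RT activity at day 5; IC50 and IC90 from curve fits.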

[1] = with 30% human serum, read-out: MT-2 (HIVIIIB) with 30% HS IC50 range

SMILES | IC50 (without HS, read-out: MT-2 (HIVIIIB) IC50 range) [µM] | IC50 [1] [µM]
CC(C)C1=C2[C@H]3CC[C@@H]4[C@@]5(C)CC[C@H](OC(=O)CC(C)(C)C(=O)O)C(C)(C)[C@@H]5CC[C@@]4(C)[C@]3(C)CC[C@@]2(C(=O)NC2CCCCC2)CC1=O [9-4, 3β-O-(3′,3′-Dimethylsuccinyl)-21-oxolup-18-en-28-oic acid N-cyclohexylamide] | < 0.199 | 
CC(C)C1=C2[C@H]3CC[C@@H]4[C@@]5(C)CC[C@H](OC(=O)CC(C)(C)C(=O)O)C(C)(C)[C@@H]5CC[C@@]4(C)[C@]3(C)CC[C@@]2(C(=O)N2CCNCC2)CC1=O [9-28, 3β-O-(3′,3′-Dimethylsuccinyl)-21-oxolup-18-en-28-oic acid N-piperazinyl-acetamide] |  | < 0.199
CC(C)C1=C2[C@H]3CC[C@@H]4[C@@]5(C)CC[C@H](OC(=O)CC(C)(C)C(=O)O)C(C)(C)[C@@H]5CC[C@@]4(C)[C@]3(C)CC[C@@]2(C(=O)NCc2cccnc2)CC1=O [9-17, 3β-O-(3′,3′-Dimethylsuccinyl)-21-oxolup-18-en-28-oic acid N-pyridin-3-ylmethylamide] |  | < 0.199
Cc1ccccc1NC(=O)[C@@]12CC[C@]3(C)[C@H](CC[C@@H]4[C@@]5(C)CC[C@H](OC(=O)CC(C)(C)C(=O)O)C(C)(C)[C@@H]5CC[C@]43C)C1=C(C(C)C)C(=O)C2 [9-47, 3β-O-(3′,3′-Dimethylsuccinyl)-21-oxolup-18-en-28-oic acid N-2-methyl-phen-1-yl acetamide] |  | < 0.199
CC(C)C1=C2[C@H]3CC[C@@H]4[C@@]5(C)CC[C@H](OC(=O)CC(C)(C)C(=O)O)C(C)(C)[C@@H]5CC[C@@]4(C)[C@]3(C)CC[C@@]2(C(=O)NC2CCC(F)(F)CC2)CC1=O [9-85, 3β-O-(3′,3′-Dimethylsuccinyl)-21-oxolup-18-en-28-oic acid N-(4,4-difluoro-cyclohexyl) acetamide] |  | < 0.199
CC(C)C1=C2C3CCC4[C@@]5(C)CC[C@H](OC(=O)CC(C)(C)C(=O)O)C(C)(C)C5CC[C@@]4(C)[C@]3(C)CC[C@@]2(C(=O)NCC2CCC(F)(F)CC2)CC1=O (stereo partly drawn) [9-93, 3β-O-(3′,3′-Dimethylsuccinyl)-21-oxolup-18-en-28-oic acid N-(4,4-difluoro-cyclohexylmethyl)-acetamide] |  | < 0.199
Cc1ccc(NC(=O)[C@@]23CC[C@]4(C)[C@H](CC[C@@H]5[C@@]6(C)CC[C@H](OC(=O)CC(C)(C)C(=O)O)C(C)(C)[C@@H]6CC[C@]54C)C2=C(C(C)C)C(=O)C3)cc1 [9-49, 3β-O-(3′,3′-Dimethylsuccinyl)-21-oxolup-18-en-28-oic acid N-4-methyl-phen-1-yl acetamide] |  | < 0.199
CC(C)C1=C2[C@H]3CC[C@@H]4[C@@]5(C)CC[C@H](OC(=O)CC(C)(C)C(=O)O)C(C)(C)[C@@H]5CC[C@@]4(C)[C@]3(C)CC[C@@]2(C(=O)Nc2ccccn2)CC1=O [9-25, 3β-O-(3′,3′-Dimethylsuccinyl)-21-oxolup-18-en-28-oic acid N-pyridin-2-yl-acetamide] |  | < 0.199
CC(C)C1=C2[C@H]3CC[C@@H]4[C@@]5(C)CC[C@H](OC(=O)CC(C)(C)C(=O)O)C(C)(C)[C@@H]5CC[C@@]4(C)[C@]3(C)CC[C@@]2(C(=O)N(C)Cc2ccccc2)CC1=O [9-11, 3β-O-(3′,3′-Dimethylsuccinyl)-21-oxolup-18-en-28-oic acid N-methyl-N-benzylamide] |  | < 0.199
CC(C)C1=C2[C@H]3CC[C@@H]4[C@@]5(C)CC[C@H](OC(=O)CC(C)(C)C(=O)O)C(C)(C)[C@@H]5CC[C@@]4(C)[C@]3(C)CC[C@@]2(C(=O)NC(C)C(F)(F)F)CC1=O (stereo partly drawn) [9-75, 3β-O-(3′,3′-Dimethylsuccinyl)-21-oxolup-18-en-28-oic acid N-(2,2,2-trifluoro-1-methyl-ethyl)-acetamide] |  | < 0.199
CC(C)C1=C2[C@H]3CC[C@@H]4[C@@]5(C)CC[C@H](OC(=O)CC(C)(C)C(=O)O)C(C)(C)[C@@H]5CC[C@@]4(C)[C@]3(C)CC[C@@]2(C(=O)NCC2CC2)CC1=O [9-69, 3β-O-(3′,3′-Dimethylsuccinyl)-21-oxolup-18-en-28-oic acid N-cyclopropylmethyl acetamide] |  | < 0.199
Cc1cc(NC(=O)[C@@]23CC[C@]4(C)C(CCC5[C@@]6(C)CC[C@H](OC(=O)CC(C)(C)C(=O)O)C(C)(C)C6CC[C@]54C)C2=C(C(C)C)C(=O)C3)no1 (stereo partly drawn) [9-91, 3β-O-(3′,3′-Dimethylsuccinyl)-21-oxolup-18-en-28-oic acid N-(5-methyl-isoxazol-3-yl)-acetamide] |  | < 0.199
CC(C)C1=C2[C@H]3CC[C@@H]4[C@@]5(C)CC[C@H](OC(=O)CC(C)(C)C(=O)O)C(C)(C)[C@@H]5CC[C@@]4(C)[C@]3(C)CC[C@@]2(C(=O)NC(C)(C)C2CC2)CC1=O [9-73, 3β-O-(3′,3′-Dimethylsuccinyl)-21-oxolup-18-en-28-oic acid N-(1-cyclopropyl-1-methyl-ethyl)-acetamide] |  | < 0.199
CC(C)C1=C2[C@H]3CC[C@@H]4[C@@]5(C)CC[C@H](OC(=O)CC(C)(C)C(=O)O)C(C)(C)[C@@H]5CC[C@@]4(C)[C@]3(C)CC[C@@]2(C(=O)Nc2nccc(C(F)(F)F)n2)CC1=O [9-72, 3β-O-(3′,3′-Dimethylsuccinyl)-21-oxolup-18-en-28-oic acid N-4-trifluoro-pyrimidin-2-yl-acetamide] |  | < 0.199
CC(C)C1=C2[C@H]3CC[C@@H]4[C@@]5(C)CC[C@H](OC(=O)CC(C)(C)C(=O)O)C(C)(C)[C@@H]5CC[C@@]4(C)[C@]3(C)CC[C@@]2(C(=O)NC2CCNCC2)CC1=O [9-31, 3β-O-(3′,3′-Dimethylsuccinyl)-21-oxolup-18-en-28-oic acid N-(4-aminopiperidine)-acetamide] |  | 0.2 to 0.999
CC(C)C1=C2[C@H]3CC[C@@H]4[C@@]5(C)CC[C@H](OC(=O)CC(C)(C)C(=O)O)C(C)(C)[C@@H]5CC[C@@]4(C)[C@]3(C)CC[C@@]2(C(=O)Nc2cnc3ccccc3c2)CC1=O [9-60, 3β-O-(3′,3′-Dimethylsuccinyl)-21-oxolup-18-en-28-oic acid N-quinolin-3-yl-acetamide] |  | < 0.199
CC(C)C1=C2[C@H]3CC[C@@H]4[C@@]5(C)CC[C@H](OC(=O)CC(C)(C)C(=O)O)C(C)(C)[C@@H]5CC[C@@]4(C)[C@]3(C)CC[C@@]2(C(=O)N2CCC(N(C)C)CC2)CC1=O [9-74, 3β-O-(3′,3′-Dimethylsuccinyl)-21-oxolup-18-en-28-oic acid N-(4-dimethylamino-piperidin-1-yl)-acetamide] |  | < 0.199
Cc1cc(C)nc(NC(=O)[C@@]23CC[C@]4(C)[C@H](CC[C@@H]5[C@@]6(C)CC[C@H](OC(=O)CC(C)(C)C(=O)O)C(C)(C)[C@@H]6CC[C@]54C)C2=C(C(C)C)C(=O)C3)n1 [9-58, 3β-O-(3′,3′-Dimethylsuccinyl)-21-oxolup-18-en-28-oic acid N-4,6-dimethyl-pyrimidin-2-yl-acetamide] |  | < 0.199
CC(C)C1=C2[C@H]3CC[C@@H]4[C@@]5(C)CC[C@H](OC(=O)CC(C)(C)C(=O)O)C(C)(C)[C@@H]5CC[C@@]4(C)[C@]3(C)CC[C@@]2(C(=O)NCCN)CC1=O [9-21, 3β-O-(3′,3′-Dimethylsuccinyl)-21-oxolup-18-en-28-oic acid N-(2-amino-ethyl)-acetamide] |  | < 0.199
CC(C)C1=C2[C@H]3CC[C@@H]4[C@@]5(C)CC[C@H](OC(=O)CC(C)(C)C(=O)O)C(C)(C)[C@@H]5CC[C@@]4(C)[C@]3(C)CC[C@@]2(C(=O)NCc2ccccn2)CC1=O [9-16, 3β-O-(3′,3′-Dimethylsuccinyl)-21-oxolup-18-en-28-oic acid N-pyridin-2-ylmethylamide] |  | < 0.199
